Assay results as given in ChEMBL document CHEMBL2203217, “Prohormone-substrate peptide sequence recognition by peptidylglycine α-amidating monooxygenase and its reflection in increased glycolate inhibitor potency” (Bioorg Med Chem Lett, 2012).

Experiments:
[1] = target: T1, Peptidyl-glycine alpha-amidating monooxygenase (Homo sapiens, UniProt P19021); test: Competitive inhibition of PAM in human DMS53 cells using as(R)-Tyr-(S)-Val-Gly as substrate after 2 hrs by HPLC analysis; assay type: cell-based, DMS-53
T1 sequence (P19021 whole entry): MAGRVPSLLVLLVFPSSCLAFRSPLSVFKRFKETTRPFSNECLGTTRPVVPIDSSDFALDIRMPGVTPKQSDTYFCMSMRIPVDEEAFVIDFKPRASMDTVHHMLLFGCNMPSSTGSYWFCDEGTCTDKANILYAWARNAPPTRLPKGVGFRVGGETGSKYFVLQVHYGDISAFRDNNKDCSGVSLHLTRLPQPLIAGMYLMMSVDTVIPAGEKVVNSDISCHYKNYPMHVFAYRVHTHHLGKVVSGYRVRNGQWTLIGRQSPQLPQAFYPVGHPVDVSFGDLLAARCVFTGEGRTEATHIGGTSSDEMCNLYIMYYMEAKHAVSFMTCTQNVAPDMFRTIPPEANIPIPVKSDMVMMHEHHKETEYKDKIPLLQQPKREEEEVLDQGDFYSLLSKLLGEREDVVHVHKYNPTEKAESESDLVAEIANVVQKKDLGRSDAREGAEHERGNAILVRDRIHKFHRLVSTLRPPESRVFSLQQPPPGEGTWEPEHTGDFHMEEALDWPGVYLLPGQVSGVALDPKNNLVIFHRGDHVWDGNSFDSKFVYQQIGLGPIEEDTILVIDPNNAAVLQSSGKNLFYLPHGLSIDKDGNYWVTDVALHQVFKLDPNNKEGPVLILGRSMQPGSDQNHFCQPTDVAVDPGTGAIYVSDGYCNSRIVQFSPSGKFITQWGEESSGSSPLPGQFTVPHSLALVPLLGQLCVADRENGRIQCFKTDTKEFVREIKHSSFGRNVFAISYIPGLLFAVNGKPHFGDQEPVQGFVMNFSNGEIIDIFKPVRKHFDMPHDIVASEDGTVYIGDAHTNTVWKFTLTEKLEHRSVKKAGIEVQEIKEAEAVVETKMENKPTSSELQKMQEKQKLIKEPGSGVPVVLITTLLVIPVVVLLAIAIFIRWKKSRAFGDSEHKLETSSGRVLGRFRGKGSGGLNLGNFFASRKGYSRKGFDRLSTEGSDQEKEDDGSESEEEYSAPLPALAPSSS

[2] = target: T1, Peptidyl-glycine alpha-amidating monooxygenase; test: Competitive inhibition of secreted PAM in human DMS53 cell culture medium using as(R)-Tyr-(S)-Val-Gly as substrate after 2 hrs by HPLC analysis; set-up: species or system DMS-53

- IC50 [1]: 1100 µM
- IC50 [2]: 1100 µM
Structure (SMILES): CC(=O)OCC(=O)O
